Earlier results as cited in patent publication US20160355464A1, “FUMARATE COMPOUNDS, PHARMACEUTICAL COMPOSITIONS THEREOF, AND METHODS OF USE” (priority 2015, published 2016).

Q: Which aqueous solubility does the source give for COC(=O)/C=C/C(=O)OC [DMF, dimethylfumarate] here?
A: poor aqueous solubility
